Experimental data: patent EP4273147A1, “SUBSTITUTED SPIROLACTAMS, SALTS THEREOF AND THEIR USE AS HERBICIDALLY ACTIVE SUBSTANCES” (Bayer Aktiengesellschaft, priority 2022, dated 2023)

Tests used:
POAAN [1] = experiment: Herbicidal post-emergence action (Table B7); assay type: in vivo, Poa annua
How it was run: (§1)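 Visual rating of activity versus untreated plants about 3 weeks after treatment: 0% means no difference from controls, 100% means complete kill. Test weeds were raised from seed in sandy loam under controlled greenhouse conditions and sprayed at the one-leaf stage.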

STEME = experiment: Herbicidal pre-emergence action (Table A6); assay type: in vivo, Stellaria media; settings: visual grading after ca. 3 weeks
How it was run: (§2)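 Two-species sowings per pot, mono- plus dicotyledonous weeds; soil type sandy loam, seed covered after sowing.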

AMARE = experiment: Herbicidal post-emergence action (Table B11); assay type: in vivo, Amaranthus retroflexus; settings: application rate 1280 g/ha
Experimental: (§3) Seeds of mono- and dicotyledonous weed plants were placed in plastic pots in sandy loam soil (doubly sown with in each case one species of mono- or dicotyledonous weed plants per pot), covered with soil and cultivated in a greenhouse under controlled growth conditions. 2 to 3 weeks after sowing, the test plants were treated at the one-leaf stage. […] After the test plants had been kept in the greenhouse under optimum growth conditions for about 3 weeks, the activity of the preparations was rated visually in comparison to untreated controls. For example, 100% activity = the plants have died, 0% activity = like control plants.

POAAN [2] = experiment: Herbicidal pre-emergence action (Table A7); assay type: in vivo, Poa annua; settings: visual grading after ca. 3 weeks
How it was run: as §2

SETVI [3] = experiment: Herbicidal pre-emergence action (Table A5); assay type: in vivo, Setaria viridis; settings: visual grading after ca. 3 weeks
How it was run: as §2

LOLRI [4] = experiment: Herbicidal pre-emergence action, section C (Table C7); assay type: in vivo, Lolium rigidum; settings: application rate 320 g/ha; visual grading after ca. 3 weeks
From the text: (§6) Seeds of mono- and dicotyledonous weed plants and crop plants were sown, in plastic or organic planting pots, in sandy loam and covered with soil. The compounds according to the invention, formulated in the form of wettable powders (WP) or as emulsifiable concentrates (EC), were applied to the surface of the covering soil as aqueous suspension or emulsion, with the addition of 0.5% of an additive, at an application rate of 600 1 of water/ha (converted). Following treatment, the pots were placed in a greenhouse and kept under optimum growth conditions for the test plants.

GLXMA [5] = experiment: Pre-emergence effects on crop plants (Table D4); assay type: in vivo, Glycine max; settings: crop plant; application rate 320 g/ha; visual grading after ca. 3 weeks
ZEAMX [6] = experiment: Post-emergence effects on crop plants (Table F1); assay type: in vivo, Zea mays; settings: application rate 320 g/ha, crop plant ZEAMX
From the text: (§4) 2 to 3 weeks after sowing, the test plants were sprayed in the single-leaf stage.

DIGSA [7] = experiment: Herbicidal pre-emergence action, section C (Table C5); assay type: in vivo, Digitaria sanguinalis; settings: visual grading after ca. 3 weeks
ZEAMX [8] = experiment: Pre-emergence effects on crop plants (Table D1); assay type: in vivo, Zea mays; settings: crop plant, visual grading after ca. 3 weeks
From the text: Seeds of mono- and dicotyledonous weed plants and crop plants were sown, in plastic or organic planting pots, in sandy loam and covered with soil. The compounds according to the invention, formulated in the form of wettable powders (WP) or as emulsifiable concentrates (EC), were applied to the surface of the covering soil as aqueous suspension or emulsion, with the addition of 0.5% of an additive, at an application rate of 600 1 of water/ha (converted).
Following treatment, the pots were placed in a greenhouse and kept under optimum growth conditions for the test plants.

ORYZA [9] = experiment: Post-emergence effects on crop plants (Table F3); assay type: in vivo, Oryza sativa; settings: application rate 320 g/ha, crop plant ORYZA
From the text: as §4

TRZAS [10] = experiment: Pre-emergence effects on crop plants (Table D2); assay type: in vivo, Triticum aestivum; settings: crop plant, visual grading after ca. 3 weeks
LOLRI [11] = experiment: Herbicidal pre-emergence action (Table A3); assay type: in vivo, Lolium rigidum; settings: visual grading after ca. 3 weeks
How it was run: as §2

BRSNW [12] = experiment: Post-emergence effects on crop plants (Table F5); assay type: in vivo, Brassica napus; settings: application rate 320 g/ha, crop plant BRSNW
From the text: as §4

BRSNW [13] = experiment: Pre-emergence effects on crop plants (Table D5); assay type: in vivo, Brassica napus; settings: crop plant, visual grading after ca. 3 weeks
ECHCG [14] = experiment: Herbicidal pre-emergence action, section C (Table C6); assay type: in vivo, Echinochloa crus-galli; settings: application rate 320 g/ha; visual grading after ca. 3 weeks
VERPE [15] = experiment: Herbicidal pre-emergence action, section C (Table C11); assay type: in vivo, Veronica persica; settings: application rate 80 g/ha; visual grading after ca. 3 weeks
GLXMA [16] = experiment: Post-emergence effects on crop plants (Table F4); assay type: in vivo, Glycine max; settings: crop plant GLXMA
From the text: as §4

ORYZA [17] = experiment: Pre-emergence effects on crop plants (Table D3); settings: crop plant, visual grading after ca. 3 weeks
SETVI [18] = experiment: Herbicidal pre-emergence action, section C (Table C10); assay type: in vivo, Setaria viridis; settings: application rate 320 g/ha; visual grading after ca. 3 weeks
From the text: as §6

ECHCG [19] = experiment: Herbicidal pre-emergence action (Table A2); assay type: in vivo, Echinochloa crus-galli; settings: visual grading after ca. 3 weeks
How it was run: as §2

VIOTR = experiment: Herbicidal pre-emergence action, section C (Table C12); assay type: in vivo, Viola tricolor; settings: application rate 320 g/ha; visual grading after ca. 3 weeks
ECHCG [20] = experiment: Herbicidal post-emergence action, section E (Table E5); assay type: in vivo, Echinochloa crus-galli; settings: application rate 320 g/ha; assessed visually after ca. 3 weeks
From the text: as §4

TRZAS [21] = experiment: Post-emergence effects on crop plants (Table F2); assay type: in vivo, Triticum aestivum; settings: application rate 320 g/ha, crop plant TRZAS
From the text: as §4

ALOMY [22] = experiment: Herbicidal pre-emergence action, section C (Table C2); assay type: in vivo, Alopecurus myosuroides; settings: application rate 320 g/ha; visual grading after ca. 3 weeks
From the text: as §6

MATIN [23] = experiment: Herbicidal post-emergence action (Table B6); assay type: in vivo, Matricaria inodora; settings: rated visually after about 3 weeks
Experimental: as §3

ECHCG [24] = experiment: Herbicidal post-emergence action (Table B3); assay type: in vivo, Echinochloa crus-galli; settings: application rate 1280 g/ha; rated visually after about 3 weeks
How it was run: as §1

DIGSA [25] = experiment: Herbicidal pre-emergence action (Table A12); assay type: in vivo, Digitaria sanguinalis; settings: visual grading after ca. 3 weeks
How it was run: as §2

ABUTH = experiment: Herbicidal pre-emergence action (Table A1); assay type: in vivo, Abutilon theophrasti; settings: application rate 1280 g/ha; visual grading after ca. 3 weeks vs untreated controls (100% = plants have died off, 0% = as control plants)
From the text: (§5) Seeds of mono- and dicotyledonous weed plants were sown in plastic pots (double sowings with one species of mono- and one species of dicotyledonous weed plants per pot), in sandy loam, and covered with soil.

MATIN [26] = experiment: Herbicidal pre-emergence action (Table A4); assay type: in vivo, Matricaria inodora; settings: application rate 1280 g/ha; visual grading after ca. 3 weeks
How it was run: as §2

KCHSC = experiment: Herbicidal pre-emergence action (Table A10); assay type: in vivo, Kochia scoparia; settings: application rate 1280 g/ha; visual grading after ca. 3 weeks
How it was run: as §2

VERPE [27] = experiment: Herbicidal pre-emergence action (Table A11); assay type: in vivo, Veronica persica; settings: application rate 1280 g/ha; visual grading after ca. 3 weeks
From the text: as §5

ALOMY [28] = experiment: Herbicidal pre-emergence action (Table A9); assay type: in vivo, Alopecurus myosuroides; settings: application rate 1280 g/ha; visual grading after ca. 3 weeks
From the text: as §5

| SMILES | post-emergence activity against POAAN (POAAN [1]; application rate 1280 g/ha) | pre-emergence activity against STEME (STEME; application rate 320 g/ha) | pre-emergence activity against POAAN (POAAN [2]; application rate 320 g/ha) | pre-emergence activity against SETVI (SETVI [3]; application rate 1280 g/ha) | post-emergence activity against ZEAMX (ZEAMX [6]) | post-emergence activity against ORYZA (ORYZA [9]) | post-emergence activity against BRSNW (BRSNW [12]) | pre-emergence activity against SETVI (SETVI [18]) | pre-emergence activity against ECHCG (ECHCG [19]; application rate 1280 g/ha) | pre-emergence activity against VIOTR (VIOTR) | pre-emergence activity against SETVI (SETVI [3]; application rate 320 g/ha) | post-emergence activity against TRZAS (TRZAS [21]) | pre-emergence activity against LOLRI (LOLRI [11]; application rate 1280 g/ha) | pre-emergence activity against MATIN (MATIN [26]) | also measured |
| --- | --- | --- | --- | --- | --- | --- | --- | --- | --- | --- | --- | --- | --- | --- | --- |
| COc1c(F)ccc(CN2CCCC3(CCCN(Cc4ccc(F)c(OC)c4F)C3=O)C2=O)c1F (racemic) [I-019] | 100% | 100% | 100% | 100% | – | – | – | – | – | – | – | – | – | – | post-emergence activity against AMARE (AMARE): 100% |
| O=C1N(Cc2ccc(F)cc2F)CCCC12CCCN(Cc1ccc(F)cc1F)C2=O (racemic) [I-021] | – | 90% | 90% | – | 10% | 0% | 0% | 100% | 100% | 80% | 100% | 0% | – | – | pre-emergence activity against LOLRI (LOLRI [4]): 100%; pre-emergence activity against GLXMA (GLXMA [5]): 10%; pre-emergence activity against DIGSA (DIGSA [7]; application rate 80 g/ha): 90%; pre-emergence activity against ZEAMX (ZEAMX [8]; application rate 80 g/ha): 0%; pre-emergence activity against TRZAS (TRZAS [10]; application rate 80 g/ha): 0%; pre-emergence activity against LOLRI (LOLRI [11]; application rate 320 g/ha): 100%; pre-emergence activity against BRSNW (BRSNW [13]; application rate 320 g/ha): 20%; pre-emergence activity against ECHCG (ECHCG [14]): 100%; pre-emergence activity against VERPE (VERPE [15]): 100%; post-emergence activity against GLXMA (GLXMA [16]; application rate 320 g/ha): 10%; pre-emergence activity against ORYZA (ORYZA [17]; application rate 80 g/ha): 10%; post-emergence activity against ECHCG (ECHCG [20]): 80%; pre-emergence activity against ALOMY (ALOMY [22]): 100% |
| Cc1ccc(F)c(CN2CCCC3(CCCN(Cc4c(F)ccc(C)c4F)C3=O)C2=O)c1F (racemic) [I-029] | 90% | – | 90% | 100% | – | – | – | – | 100% | – | – | – | 100% | – | pre-emergence activity against STEME (STEME; application rate 1280 g/ha): 90%; post-emergence activity against MATIN (MATIN [23]; application rate 1280 g/ha): 100%; post-emergence activity against ECHCG (ECHCG [24]): 100% |
| O=C1N(Cc2ccccc2Cl)CCCC12CCCN(Cc1ccccc1Cl)C2=O (racemic) [I-030] | – | – | – | 100% | – | – | – | – | – | – | – | – | – | – | post-emergence activity against POAAN (POAAN [1]; application rate 320 g/ha): 90%; post-emergence activity against MATIN (MATIN [23]; application rate 320 g/ha): 90%; pre-emergence activity against ECHCG (ECHCG [19]; application rate 320 g/ha): 90%; pre-emergence activity against POAAN (POAAN [2]; application rate 1280 g/ha): 90% |
| Cc1cccc(CN2CCCC3(CCCN(Cc4cccc(C)c4F)C3=O)C2=O)c1F (racemic) [I-053] | 90% | – | 100% | 100% | 0% | 0% | 20% | 100% | 100% | 90% | – | 10% | 90% | – | pre-emergence activity against DIGSA (DIGSA [7]; application rate 320 g/ha): 100%; pre-emergence activity against ZEAMX (ZEAMX [8]; application rate 80 g/ha): 0%; pre-emergence activity against TRZAS (TRZAS [10]; application rate 320 g/ha): 0%; post-emergence activity against MATIN (MATIN [23]; application rate 320 g/ha): 90%; pre-emergence activity against BRSNW (BRSNW [13]; application rate 320 g/ha): 10%; post-emergence activity against GLXMA (GLXMA [16]; application rate 320 g/ha): 0%; pre-emergence activity against ORYZA (ORYZA [17]; application rate 320 g/ha): 0%; pre-emergence activity against DIGSA (DIGSA [25]; application rate 320 g/ha): 100% |
| O=C1N(Cc2ccccc2Cl)CCCC12CCN(Cc1c(F)cccc1F)C2=O (racemic) [I-076] | – | 90% | 100% | 100% | – | – | – | – | 100% | – | – | – | – | 90% | pre-emergence activity against LOLRI (LOLRI [11]; application rate 320 g/ha): 100%; pre-emergence activity against ABUTH (ABUTH): 90%; post-emergence activity against ECHCG (ECHCG [24]): 90%; pre-emergence activity against DIGSA (DIGSA [25]; application rate 320 g/ha): 90% |
| O=C1N(Cc2ccccc2)CCC12CCCN(Cc1ccccc1F)C2=O (racemic) [I-093] | – | – | 100% | – | – | – | – | – | 100% | – | 100% | – | 100% | 90% | post-emergence activity against POAAN (POAAN [1]; application rate 320 g/ha): 90%; pre-emergence activity against STEME (STEME; application rate 1280 g/ha): 90%; pre-emergence activity against ABUTH (ABUTH): 90%; pre-emergence activity against KCHSC (KCHSC): 90%; pre-emergence activity against DIGSA (DIGSA [25]; application rate 1280 g/ha): 100% |
| O=C1N(Cc2ccccc2F)CCC12CCN(Cc1ccccc1F)C2=O (racemic) [I-097] | – | – | – | 100% | – | – | – | – | 90% | – | – | – | 90% | 90% | post-emergence activity against AMARE (AMARE): 90%; pre-emergence activity against KCHSC (KCHSC): 90% |
| CC(c1c(F)cccc1F)N1CCCC2(CCCN(C(C)c3c(F)cccc3F)C2=O)C1=O (stereo not shown) [I-074] | – | 90% | – | – | 0% | 0% | 0% | 90% | 90% | 90% | 90% | 0% | 90% | – | pre-emergence activity against GLXMA (GLXMA [5]): 0%; pre-emergence activity against DIGSA (DIGSA [7]; application rate 320 g/ha): 100%; pre-emergence activity against VERPE (VERPE [27]): 90%; pre-emergence activity against ZEAMX (ZEAMX [8]; application rate 320 g/ha): 0%; pre-emergence activity against TRZAS (TRZAS [10]; application rate 320 g/ha): 20%; pre-emergence activity against BRSNW (BRSNW [13]; application rate 80 g/ha): 0%; post-emergence activity against GLXMA (GLXMA [16]; application rate 80 g/ha): 0%; pre-emergence activity against POAAN (POAAN [2]; application rate 1280 g/ha): 100%; pre-emergence activity against DIGSA (DIGSA [25]; application rate 1280 g/ha): 90%; pre-emergence activity against ALOMY (ALOMY [28]): 90%; pre-emergence activity against ALOMY (ALOMY [22]): 80% |
